The source of these data is patent EP0415567A2, “Composition and method for stabilising organic compounds” (QUADRANT BIORESOURCES LIMITED, priority 1989, dated 1991).

One series has as its system DNA ligase. The series can be described thus: Storage stability of dried ATP by DNA ligase assay. The class given is biochemical. Particulars: ATP at 0.5 mM dried with ligase in trehalose buffer, no acetate as efflorescent salt; 2 weeks at 37°C. The text has this: Using an assay for DNA ligase whioh joins DNA fragments using ATP as an energy source.
The conditions of series [1]: solutions of 25% wv, in six hours at 5°C; cited from earlier work.

As to `Nc1ncnc2c1ncn2[C@@H]1O[C@H](COP(=O)(O)OP(=O)(O)OP(=O)(O)O)[C@@H](O)[C@H]1O` [ATP], the “stability of ATP in the dry state” value in the series with DNA ligase was “completely stable”.
Turning to `CC1(C)S[C@@H]2[C@H](NC(=O)[C@H](N)c3ccccc3)C(=O)N2[C@H]1C(=O)O` [Ampicillin sodium], in series [1], the loss of potency is recorded as 20%.
